Source: ChEMBL document CHEMBL4311942, “Design of Trp-Rich Dodecapeptides with Broad-Spectrum Antimicrobial Potency and Membrane-Disruptive Mechanism” (J Med Chem, 2019)
Converted amounts (≈) assume the structure as drawn. The source made the active and inactive calls. No cut-off for these calls is given here. Where a SMILES comes first, the peptide text is derived from it.

Tests used:
Escherichia coli [1] = test: Induction of cell membrane disruption in Escherichia coli ATCC 25922 assessed as appearance of membrane atrophy at 1 times MIC after 60 mins by field emission scanning electron microscopy; format: organism-based
Escherichia coli [2] = test: Antibacterial activity against Escherichia coli ATCC 25922 in presence of NaCl by broth microdilution method; format: functional
Escherichia coli [3] = test: Antibacterial activity against Escherichia coli ATCC 25922 in presence of 50% serum by broth microdilution method; format: functional
Staphylococcus aureus [4] = test: Induction of cell membrane disruption in Staphylococcus aureus ATCC 29213 assessed as apperance of broken and empty cell envelope at 2 times MIC after 60 mins by field emission scanning electron microscopy; format: organism-based
Escherichia coli [5] = test: Antibacterial activity against Escherichia coli UB1005 incubated for 18 to 24 hrs by broth microdilution method; format: functional
Escherichia coli [6] = test: Antibacterial activity against Escherichia coli ATCC 25922 using preheated compound at 100 degreeC for 1 hr by broth microdilution method; format: functional; details: ATCC 25922, 1 h
Escherichia coli [7] = test: Antibacterial activity against Escherichia coli ATCC 25922 in presence of NaBH4 by broth microdilution method; format: functional
Escherichia coli [8] = test: Induction of outer membrane permeabilization in Escherichia coli UB1005 assessed as increase in NPN uptake by spectrofluorophotometric assay; format: organism-based
Escherichia coli [9] = test: Induction of cell membrane disruption in Escherichia coli ATCC 25922 assessed as appearance of cytoplasmic clear zones at 1 times MIC after 60 mins by transmission electron microscopy; format: organism-based
Staphylococcus aureus [10] = test: Induction of cell membrane disruption in Staphylococcus aureus ATCC 29213 assessed as apperance of rough membrane with discrete blebs at 1 times MIC after 60 mins by field emission scanning electron microscopy; format: organism-based
Staphylococcus aureus [11] = test: Antibacterial activity against Staphylococcus aureus ATCC 29213 in presence of NaCl by broth microdilution method; format: functional
Staphylococcus aureus [12] = test: Antibacterial activity against Staphylococcus aureus ATCC 29213 in presence of H202 by broth microdilution method; format: functional
Staphylococcus aureus [13] = test: Antibacterial activity against Staphylococcus aureus ATCC 29213 in presence of FeCl3 by broth microdilution method; format: functional
[14] = Drug localization in Staphylococcus aureus ATCC 29213 at 1 to 2 times MIC incubated for 1 hr using FITC-labelled peptides by propidium iodide-staining based regular fluorescent microscopy; format: ADME
Escherichia coli [15] = test: Antibacterial activity against Escherichia coli ATCC 25922 incubated for 2 hrs in presence of sodium phosphate buffer at pH 12 by broth microdilution method; format: functional; details: ATCC 25922, 2 h
Staphylococcus aureus [16] = test: Antibacterial activity against Staphylococcus aureus ATCC 29213 incubated for 2 hrs in presence of sodium phosphate buffer at pH 2 by broth microdilution method; format: functional; details: ATCC 29213, 2 h
Escherichia coli [17] = test: Antibacterial activity against Escherichia coli ATCC 25922 incubated for 2 hrs in presence of sodium phosphate buffer at pH 4 by broth microdilution method; format: functional; details: ATCC 25922, 2 h
Staphylococcus aureus [18] = test: Antibacterial activity against Staphylococcus aureus ATCC 29213 in presence of CaCl2 by broth microdilution method; format: functional
Escherichia coli [19] = test: Antibacterial activity against Escherichia coli ATCC 25922 in presence of H202 by broth microdilution method; format: functional
Staphylococcus aureus [20] = test: Induction of cell membrane disruption in Staphylococcus aureus ATCC 29213 after 30 mins by propidium iodide-staining based flow cytometric analysis; format: organism-based
Escherichia coli [21] = test: Induction of cell membrane disruption in Escherichia coli ATCC 25922 assessed as appearance of partial membrane corrugation at 1 times MIC after 60 mins by field emission scanning electron microscopy; format: organism-based
Escherichia coli [22] = test: Antibacterial activity against Escherichia coli ATCC 25922 in presence of 12.5% serum by broth microdilution method; format: functional
Escherichia coli [23] = test: Bactericidal activity against Escherichia coli ATCC 25922 at 4 times MIC after 60 mins by time kill assay relative to control; format: functional
Escherichia coli [24] = test: Antibacterial activity against Escherichia coli ATCC 25922 in presence of 25% serum by broth microdilution method; format: functional
Staphylococcus aureus [25] = test: Antibacterial activity against Staphylococcus aureus ATCC 29213 in presence of 12.5% serum by broth microdilution method; format: functional
Staphylococcus aureus [26] = test: Antibacterial activity against Staphylococcus aureus ATCC 29213 using preheated compound at 100 degreeC for 1 hr by broth microdilution method; format: functional; details: ATCC 29213, 1 h
Escherichia coli [27] = test: Antibacterial activity against ciprofloxacin-resistant Escherichia coli ATCC 25922 incubated for 18 to 24 hrs; format: functional
Salmonella typhimurium = test: Antibacterial activity against Salmonella enterica serovar typhimurium C77-31 incubated for 18 to 24 hrs by broth microdilution method; format: functional, Salmonella enterica subsp. enterica serovar Typhimurium
Escherichia coli [28] = test: Antibacterial activity against Escherichia coli ATCC 25922 in presence of ZnCl2 by broth microdilution method; format: functional
Staphylococcus aureus [29] = test: Antibacterial activity against Staphylococcus aureus ATCC 29213 in presence of 50% serum by broth microdilution method; format: functional
Staphylococcus aureus [30] = test: Bactericidal activity against Staphylococcus aureus ATCC 29213 at 2 times MIC after 60 mins by time kill assay; format: functional, organism-based
Escherichia coli [31] = test: Antibacterial activity against Escherichia coli ATCC 25922 incubated for 2 hrs in presence of sodium phosphate buffer at pH 10 by broth microdilution method; format: functional; details: ATCC 25922, 2 h
Staphylococcus aureus [32] = test: Antibacterial activity against Staphylococcus aureus ATCC 29213 incubated for 2 hrs in presence of sodium phosphate buffer at pH 12 by broth microdilution method; format: functional; details: ATCC 29213, 2 h
Escherichia coli [33] = test: Antibacterial activity against Escherichia coli ATCC 25922 in presence of FeCl3 by broth microdilution method; format: functional
Staphylococcus aureus [34] = test: Antibacterial activity against Staphylococcus aureus 11011 incubated for 18 to 24 hrs by broth microdilution method; format: functional
Lipopolysaccharide (LPS) = test: Displacement of BODIPY-TR-cadaverine from Escherichia coli O111:B4 LPS assessed as increase in fluorescence intensity at 64 uM by spectrofluorophotometric method relative to control
[35] = Drug localization in Staphylococcus aureus ATCC 29213 at 2 times MIC incubated for 1 hr using FITC-labelled peptides by propidium iodide-staining based super resolution fluorescent microscopy; format: ADME
[36] = Cytotoxicity against mouse RAW264.7 cells assessed as cell survival at […] after 24 hrs by MTT assay relative to control; format: cell-based; details: read-out: Activity
[37] = Cytotoxicity against mouse RAW264.7 cells assessed as cell survival at <= 32 uM after 24 hrs by MTT assay relative to control; format: cell-based; details: RAW264.7 cells, up to 32 µM, read-out: Activity
Escherichia coli [38] = test: Induction of outer membrane permeabilization in Escherichia coli UB1005 assessed as increase in NPN uptake at 4 uM by spectrofluorophotometric assay relative to control
Escherichia coli [39] = test: Antibacterial activity against Escherichia coli ATCC 25922 in presence of MgCl2 by broth microdilution method; format: functional
Staphylococcus aureus [40] = test: Antibacterial activity against Staphylococcus aureus ATCC 29213 in presence of MgCl2 by broth microdilution method; format: functional
Staphylococcus aureus [41] = test: Induction of cell membrane disruption in Staphylococcus aureus ATCC 29213 assessed as propidium iodide-positive cells at 2 times MIC after 30 mins by flow cytometric analysis (reference value: 0.3%)

CC(C)C[C@H](NC(=O)[C@H](CCCNC(=N)N)NC(=O)[C@H](Cc1c[nH]c2ccccc12)NC(=O)[C@H](CCCNC(=N)N)NC(=O)[C@@H](NC(=O)[C@H](CCCCN)NC(=O)[C@H](Cc1c[nH]c2ccccc12)NC(=O)[C@H](CCCNC(=N)N)NC(=O)[C@H](CC(C)C)NC(=O)[C@H](CCCNC(=N)N)NC(=O)[C@@H](N)Cc1c[nH]c2ccccc12)[C@@H](C)O)C(=O)N[C@@H](CCCCN)C(N)=O (H-WRLRWKTRWRLK-NH2)
Activity (Escherichia coli [1]): Active
MIC (Escherichia coli [2]): 4 µM
MIC (Escherichia coli [3]): 8 µM
Activity (Staphylococcus aureus [4]): Active
MIC (Escherichia coli [5]): 2 µM (≈ 3.57 µg/mL)
MIC (Escherichia coli [6]): 2 µM (≈ 3.57 µg/mL)
MIC (Escherichia coli [7]): 4 µM
Activity (Escherichia coli [8]): Dose-dependent effect
Activity (Escherichia coli [9]): Active
Activity (Staphylococcus aureus [10]): Active
MIC (Staphylococcus aureus [11]): 8 µM
MIC (Staphylococcus aureus [12]): 4 µM
MIC (Staphylococcus aureus [13]): 4 µM
Drug uptake [14]: Active
MIC (Escherichia coli [15]): 2 µM
MIC (Staphylococcus aureus [16]): 4 µM
MIC (Escherichia coli [17]): 2 µM
MIC (Staphylococcus aureus [18]): 4 µM
MIC (Escherichia coli [19]): 2 µM
Activity (Staphylococcus aureus [20]): Dose-dependent effect
Activity (Escherichia coli [21]): Active
MIC (Escherichia coli [22]): 4 µM
Activity (Escherichia coli [23]): 100%
MIC (Escherichia coli [24]): 4 µM
MIC (Staphylococcus aureus [25]): 4 µM
MIC (Staphylococcus aureus [26]): 2 µM (≈ 3.57 µg/mL)
MIC (Escherichia coli [27]): 4 µM (≈ 7.14 µg/mL)
MIC (Salmonella typhimurium): 2 µM (≈ 3.57 µg/mL)
MIC (Escherichia coli [28]): 4 µM
MIC (Staphylococcus aureus [29]): 8 µM
Activity (Staphylococcus aureus [30]): Active
MIC (Escherichia coli [31]): 4 µM
MIC (Staphylococcus aureus [32]): 8 µM
MIC (Escherichia coli [33]): 4 µM
MIC (Staphylococcus aureus [34]): 2 µM (≈ 3.57 µg/mL)
Activity (Lipopolysaccharide (LPS)): 92%
Drug uptake [35]: Active
viability at 24 h, […] [36]: ≤ 90%
viability at 24 h [37]: ≥ 70%
Activity (Escherichia coli [38]): 90%
MIC (Escherichia coli [39]): 2 µM
MIC (Staphylococcus aureus [40]): 2 µM
Activity (Staphylococcus aureus [41]): 97.7%
